In publication PMC11906898 (Nature Communications, 2025):
Like-named read-outs stand apart in the source and are kept apart here.

Legend:
seizurogenic activity [1] = test system: seizurogenic activity
respiration rate = assay type: in vivo, C57BL6/J mice; conditions: 30 mg/kg sc
spontaneous ambulation = assay type: in vivo, C57BL6/J mice; conditions: C6-Quino 30 mg/kg s.c.; morphine 10 or 30 mg/kg s.c.
seizurogenic activity [2] = conditions: mouse, in vivo
in vitro = in vitro ADME; conditions: human, microsomes, pH 7.4

## TAN67
Seizurogenic activity [1]; 100 nmol i.c.v.
  seizures after intracerebroventricular dosing: caused robust seizures

## CN1CC[C@]23c4c5ccc(O)c4O[C@H]2[C@@H](O)C=C[C@H]3[C@H]1C5 [morphine]
Respiration rate
  breath rate: showed respiratory depression
Spontaneous ambulation
  locomotion: significant increase in locomotion above baseline

## SNC80
Seizurogenic activity [1]; mouse, in vivo
  seizures after intracerebroventricular dosing: caused robust seizures
Seizurogenic activity [2]
  duration of seizures: 20 min
  seizures after sc dosing: produced robust seizures

## CCN(CC)CCNC(=O)c1c(C)[nH]c(/C=C2\C(=O)Nc3ccc(F)cc32)c1C [Sunitinib]
In vitro
  half-life: 27 min
